Reference: patent US9907800B2, “Kinase inhibitors and method of treating cancer” (University Health Network, priority 2010, dated 2018)
Counter-ions that a name gives are not always drawn.

Assays:
[1] = target: human PLK4 (Homo sapiens (Human), UniProt O00444); test: PLK4 inhibition assay (indirect ELISA); assay type: biochemical; conditions: read-out: PLK4 IC50 Ranges
[2] = target: Aurora B (Homo sapiens (Human), UniProt Q96GD4); test: Aurora B inhibition assay (Z-Lyte); assay type: biochemical; conditions: read-out: Aurora B IC50 Ranges
Sequence of Aurora B (Q96GD4 whole entry): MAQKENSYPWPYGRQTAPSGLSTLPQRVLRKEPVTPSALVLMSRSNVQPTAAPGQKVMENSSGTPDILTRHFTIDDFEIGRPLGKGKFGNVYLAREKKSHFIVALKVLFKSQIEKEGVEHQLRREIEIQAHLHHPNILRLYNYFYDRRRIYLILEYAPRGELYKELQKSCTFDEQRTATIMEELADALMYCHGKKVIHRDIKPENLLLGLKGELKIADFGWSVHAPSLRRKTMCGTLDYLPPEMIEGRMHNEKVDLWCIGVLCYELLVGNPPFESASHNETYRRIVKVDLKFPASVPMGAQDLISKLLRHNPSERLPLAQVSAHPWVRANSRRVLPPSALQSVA

Sequence of human PLK4 (O00444 1-391): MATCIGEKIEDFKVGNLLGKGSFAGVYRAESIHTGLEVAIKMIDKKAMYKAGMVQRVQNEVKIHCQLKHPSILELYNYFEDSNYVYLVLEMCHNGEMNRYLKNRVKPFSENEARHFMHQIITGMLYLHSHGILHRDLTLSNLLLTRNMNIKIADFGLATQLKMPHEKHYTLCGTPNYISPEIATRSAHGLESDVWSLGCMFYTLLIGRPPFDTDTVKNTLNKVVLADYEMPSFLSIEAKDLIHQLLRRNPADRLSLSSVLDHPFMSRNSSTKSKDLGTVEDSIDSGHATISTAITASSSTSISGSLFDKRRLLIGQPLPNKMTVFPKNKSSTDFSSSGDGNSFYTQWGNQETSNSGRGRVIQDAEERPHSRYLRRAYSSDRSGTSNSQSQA

| Structure (SMILES) | IC50 [1] [µM] | IC50 [2] [µM] |
| --- | --- | --- |
| COc1ccc2c(c1)[C@]1(C[C@H]1c1ccc3c(-c4ccc(N5CCN(CCO)CC5)cc4)n[nH]c3c1)C(=O)N2 [Example A191, (1R,2S)-2-(3-(4-(4-(2-hydroxyethyl)piperazin-1-yl)phenyl)-1H-indazol-6-yl)-5′-methoxyspiro[cyclopropane-1,3′-indolin]-2′-one 2,2,2-trifluoroacetate] | < 0.1 | < 0.1 |
| O=C1Nc2ccccc2[C@]12C[C@H]2c1ccc2c(/C=C/c3ccc(CCN4CCOCC4)cc3)n[nH]c2c1 [Example A205, (1R,2S)-(E)-2-(3-(4-(2-morpholinoethyl)styryl)-1H-indazol-6-yl)spiro[cyclopropane-1,3′-indolin]-2′-one 2,2,2-trifluoroacetate] | < 0.1 | < 0.1 |
| COc1ccc2c(c1)[C@]1(C[C@H]1c1ccc3c(/C=C/c4ccc(CN5CCOCC5)s4)n[nH]c3c1)C(=O)N2 [Example A105, (1R,2S)-5′-methoxy-2-(3-((E)-2-(5-(morpholinomethyl)thiophen-2-yl)vinyl)-1H-indazol-6-yl)spiro[cyclopropane-1,3′-indolin]-2′-one hydrochloride] | < 0.1 | < 0.1 |
| O=C1Nc2ncc(Br)cc2[C@]12C[C@H]2c1ccc2c(/C=C/c3cccnc3)n[nH]c2c1 (relative stereo) [Example A27, (1R*,2S*)-5′-bromo-2-(3-((E)-2-(pyridin-3-yl)vinyl-1H-indazol-6-yl)spiro[cyclopropane-1,3′-pyrrolo[2,3-b]pyridin]-2′(1′H)-one] | < 0.1 | < 0.1 |
| COc1ccc2c(c1)[C@]1(C[C@H]1c1ccc3c(/C=C/c4ccc(OC5CCN(C)CC5)cc4)n[nH]c3c1)C(=O)N2 [Example A79, (1R,2S)-(E)-5′-methoxy-2-(3-(4-(1-methylpiperidin-4-yloxy)styryl)-1H-indazol-6-yl)spiro[cyclopropane-1,3′-indolin]-2′-one 2,2,2-trifluoroacetate salt] | < 0.1 | < 0.1 |
| COc1ccc2c(c1)[C@]1(C[C@H]1c1ccc3c(/C=C/c4ccc5c(c4)CCN(C)C5)n[nH]c3c1)C(=O)N2 [Example A75, (1R,2S)-5′-methoxy-2-(3-((E)-2-(2-methyl-1,2,3,4-tetrahydroisoquinolin-6-yl)vinyl)-1H-indazol-6-yl)spiro[cyclopropane-1,3′-indolin]-2′-one 2,2,2-trifluoroacetate salt] | < 0.1 | < 0.1 |
| COc1ccc2c(c1)[C@]1(C[C@H]1c1ccc3c(-c4ccc5c(c4)CN(C)CC5)n[nH]c3c1)C(=O)N2 [Example A70, (1R,2S)-5′-methoxy-2-(3-(2-methyl-1,2,3,4-tetrahydroisoquinolin-7-yl)-1H-indazol-6-yl)spiro[cyclopropane-1,3′-indolin]-2′-one 2,2,2-trifluoroacetate salt] | < 0.1 | < 0.1 |
| COc1ccc2c(c1)[C@]1(C[C@H]1c1ccc3c(-c4ccc(OCCN5CCCCC5)cc4)n[nH]c3c1)C(=O)N2 [Example A67, (1R,2S)-5′-methoxy-2-(3-(4-(2-(piperidin-1-yl)ethoxy)phenyl)-1H-indazol-6-yl)spiro[cyclopropane-1,3′-indolin]-2′-one 2,2,2-trifluoroacetate salt] | < 0.1 | < 0.1 |
| CN1C(=O)[C@@]2(C[C@H]2c2ccc3c(/C=C/c4ccc(CN5CCCCC5)cc4)n[nH]c3c2)c2ccccc21 (relative stereo) [Example A95, (1R*,2S*)-(E)-1′-methyl-2-(3-(4-(piperidin-1-ylmethyl)styryl)-1H-indazol-6-yl)spiro[cyclopropane-1,3′-indolin]-2′-one 2,2,2-trifluoroacetate] | < 0.1 | < 0.1 |
| COc1ccc2c(c1)[C@]1(C[C@H]1c1ccc3c(/C=C/c4ccncc4)n[nH]c3c1)C(=O)N2 [Example A111, (1R,2S)-5′-methoxy-2-(3-((E)-2-(pyridin-4-yl)vinyl)-1H-indazol-6-yl)spiro[cyclopropane-1,3′-indolin]-2′-one 2,2,2-trifluoroacetate] | < 0.1 | < 0.1 |
| CN1CCN(c2ccc(-c3n[nH]c4cc([C@@H]5C[C@@]56C(=O)Nc5ccc(N)cc56)ccc34)cc2)CC1 (relative stereo) [Example A86, (1R*,2S*)-5′-amino-2-(3-(4-(4-methylpiperazin-1-yl)phenyl)-1H-indazol-6-yl)spiro[cyclopropane-1,3′-indolin]-2′-one] | < 0.1 | 0.1 to 1 |
| COc1ccc2c(c1)[C@]1(C[C@H]1c1ccc3c(/C=C/c4cccc(CN5CCOCC5)c4)n[nH]c3c1)C(=O)N2 (relative stereo) [Example A133, (1R*,2S*)-5′-methoxy-2-(3-(3-(morpholinomethyl)styryl)-1H-indazol-6-yl)spiro[cyclopropane-1,3′-indolin]-2′-one 2,2,2-trifluoroacetate] | < 0.1 | < 0.1 |
| COc1ccc2c(c1)[C@]1(C[C@H]1c1ccc3c(-c4ccc(N5CCC(N6CCOCC6)CC5)cc4)n[nH]c3c1)C(=O)N2 [Example A121, (1R,2S)-5′-methoxy-2-(3-(4-(4-morpholinopiperidin-1-yl)phenyl)-1H-indazol-6-yl)spiro[cyclopropane-1,3′-indolin]-2′-one 2,2,2-trifluoroacetate] | < 0.1 | < 0.1 |
| COc1ccc2c(c1)[C@]1(C[C@H]1c1ccc3c(-c4ccc(N5CC[C@@H](N(C)C)C5)cc4)n[nH]c3c1)C(=O)N2 [Example A127, (1R,2S)-2-(3-(4-((R)-3-(dimethylamino)pyrrolidin-1-yl)phenyl)-1H-indazol-6-yl)-5′-methoxyspiro[cyclopropane-1,3′-indolin]-2′-one 2,2,2-trifluoroacetate] | < 0.1 | < 0.1 |
| COc1ccc2c(c1)[C@]1(C[C@H]1c1ccc3c(-c4ccc(OCCN(C)C)cc4)n[nH]c3c1)C(=O)N2 [Example A69, (1R,2S)-2-(3-(4-(2-(dimethylamino)ethoxy)phenyl)-1H-indazol-6-yl)-5′-methoxyspiro[cyclopropane-1,3′-indolin]-2′-one 2,2,2-trifluoroacetate salt] | < 0.1 | < 0.1 |
| COc1ccc2c(c1)[C@]1(C[C@H]1c1ccc3c(-c4cccc(CO)c4)n[nH]c3c1)C(=O)N2 (relative stereo) [Example A43, (1R*,2S*)-2-(3-(3-(hydroxymethyl)phenyl)-1H-indazol-6-yl)-5′-methoxy spiro[cyclopropane-1,3′-indolin]-2′-one 2,2,2-trifluoroacetate] | < 0.1 | < 0.1 |
| O=C1Nc2ccccc2[C@]12C[C@H]2c1ccc2c(/C=C/c3ccc(CN4CCOCC4)c(F)c3)n[nH]c2c1 [Example A200, (1R,2S)-(E)-2-(3-(3-fluoro-4-(morpholinomethyl)styryl)-1H-indazol-6-yl)spiro[cyclopropane-1,3′-indolin]-2′-one 2,2,2-trifluoroacetate] | < 0.1 | < 0.1 |

Now from value to compound:

| IC50 [1] [µM] | IC50 [2] [µM] | Structure (SMILES) |
| --- | --- | --- |
| < 0.1 | < 0.1 | COc1ccc2c(c1)[C@]1(C[C@H]1c1ccc3c(-c4ccc5nccn5c4)n[nH]c3c1)C(=O)N2 [Example A107, (1R,2S)-2-(3-(imidazo[1,2-a]pyridin-6-yl)-1H-indazol-6-yl)-5′-methoxyspiro[cyclopropane-1,3′-indolin]-2′-one 2,2,2-trifluoroacetate] |
| < 0.1 | < 0.1 | CN(C)Cc1ccc(/C=C/c2n[nH]c3cc([C@@H]4C[C@@]45C(=O)N(CC(N)=O)c4ccccc45)ccc23)cc1 (relative stereo) [Example A160, 2-((1R*,2S*)-(E)-2-(3-(4-((dimethylamino)methyl)styryl)-1H-indazol-6-yl)-2′-oxospiro[cyclopropane-1,3′-indoline]-1′-yl)acetamide 2,2,2-trifluoroacetate] |
| < 0.1 | < 0.1 | COc1ccc2c(c1)[C@]1(C[C@H]1c1ccc3c(-c4ccc(C5CCN(C)CC5)cc4)n[nH]c3c1)C(=O)N2 [Example A123, (1R,2S)-5′-methoxy-2-(3-(4-(1-methylpiperidin-4-yl)phenyl)-1H-indazol-6-yl)spiro[cyclopropane-1,3′-indolin]-2′-one hydrochloride] |
| < 0.1 | 0.1 to 1 | NS(=O)(=O)c1cccc(-c2n[nH]c3cc([C@@H]4C[C@@]45C(=O)Nc4ccccc45)ccc23)c1 (relative stereo) [Example A130, 3-(6-((1R*,2S*)-2′-oxospiro[cyclopropane-1,3′-indoline]-2-yl)-1H-indazol-3-yl)benzenesulfonamide] |
| < 0.1 | < 0.1 | CCN(CC)Cc1c(F)cc(/C=C/c2n[nH]c3cc([C@@H]4C[C@@]45C(=O)Nc4ccccc45)ccc23)cc1F [Example A221, (1R,2S)-(E)-2-(3-(4-((diethylamino)methyl)-3,5-difluorostyryl)-1H-indazol-6-yl)spiro[cyclopropane-1,3′-indolin]-2′-one 2,2,2-trifluoroacetate] |
| < 0.1 | < 0.1 | COc1ccc2c(c1)[C@]1(C[C@H]1c1ccc3c(/C=C/c4csc(CN5CCOCC5)c4)n[nH]c3c1)C(=O)N2 [Example A183, (1R,2S)-5′-methoxy-2-(3-((E)-2-(5-(morpholinomethyl)thiophen-3-yl)vinyl)-1H-indazol-6-yl)spiro[cyclopropane-1,3′-indolin]-2′-one 2,2,2-trifluoroacetate] |
| < 0.1 | < 0.1 | C[C@@H]1CCC[C@H](C)N1Cc1ccc(/C=C/c2n[nH]c3cc([C@@H]4C[C@@]45C(=O)Nc4ccccc45)ccc23)cc1 [Example A201, (1R,2S)-(E)-2-(3-(4-((cis-2,6-dimethylpiperidin-1-yl)methyl)styryl)-1H-indazol-6-yl)spiro[cyclopropane-1,3′-indolin]-2′-one 2,2,2-trifluoroacetate] |
| < 0.1 | < 0.1 | COc1ccc2c(c1)[C@]1(C[C@H]1c1ccc3c(/C=C/c4cccnc4)n[nH]c3c1)C(=O)N2 [Example A197, (1R,2S)-5′-methoxy-2-(3-((E)-2-(pyridin-3-yl)vinyl)-1H-indazol-6-yl)spiro[cyclopropane-1,3′-indolin]-2′-one] |
